Reference: paper PMC5847527, “Identification of a novel 2-oxindole fluorinated derivative as in vivo antitumor agent for prostate cancer acting via AMPK activation” (Scientific Reports, 2018)
pIC50: −log10 of the molar value.

Experiments:
DU145 cells = assay: Cell viability by MTT assay, DU145; assay type: cell-based, human
Procedure: Figure 3 Comparison of the effect of 2-oxindole fluorinated derivatives on the proliferation of human prostate cancer cells. (A) Normal (PTN2 and RWPE-1) and cancer (PC3,DU145 and LNCaP) prostate cells were treated with different doses of the compounds for 24 hours and cell viability was monitored by MTT assay. […] (C) PC-3, DU145 and LNCaP cells were treated with 25 µM of compound 8c for different times. Values were normalized with the control and represent the mean ± SD of at least three independent experiments. *p < 0.05 and **p < 0.01 compared to control by the Student’s - test.
Human prostate cancer epithelial PC-3, DU145 and LNCaP and human prostate normal RWPE-1 cells were purchased from American Type Culture Collection (ATCC CRL-1435 CRL-1740 and CRL 11609 respectively) (Rockville, MD, USA). The human prostate normal PNT2 cell line was purchased to ECACC (European Collection of Cell cultures, Salisbury, SP4 0JG, UK). Cells were routinely grown in RPMI 1640 medium supplemented with 100 IU/ml penicillin G sodium, 100 µg/ml streptomycin sulfate, 0.25 µg/ml amphotericin B (Invitrogen, Paisley, UK) and 10% fetal calf serum. Cells were used at passages between 10–20. For treatment experiments, cells were plated and grown over night, the medium was then replaced with serum-free RPMI 1640 for 24 hours and then incubated with different doses of the compounds for the indicated times.
Cell viability was determined by 3-(4,5-dimethylthiazol-2-yl)-2,5-diphenyltetrazolium bromide (MTT) (Sigma-Aldrich) method. In brief, a total of 5000 cells/well were seeded into 12-well plate in a final volume of 1 mL. After treatments, 20 µl MTT solution (5 mg/ml in PBS) was added to the medium and cells were incubated at 37 °C for 4 h. Then, the supernatant was discarded and isopropanol was added to dissolve the formazan crystals. Treatments were carried out in triplicate. The optical density in each well was evaluated by measurement of absorbance at 490 and 650 nm using a microplate reader (ELX 800 Bio-Tek Intruments, INC). IC50 values were calculated using GraphPad Prism vs 6.0 (GraphPad Software, Inc, La Jolla, CA, USA). Cell viability was also determined by counting viable and dead cells by Trypan blue staining. Trypan blue positive and negative cells were counted using a Countess^TM automated cell counter (Invitrogen, Carlsbad, CA, USA). Results were expressed in relation to total number of cells counted.

Raptor = Raptor phosphorylation on Ser792 by Western blot in PC-3 and LNCaP cells; assay type: cell-based, human; conditions: 25 µM
Procedure: To further confirm the compound 8c-induced activation of AMPK, PC-3 and LNCaP cells were incubated with the compound for 1 h and 24 hours in the presence of the AMPK inhibitor Dorsomorphin. […] Accordingly, ACC phosphorylation was increased at 1 h and 24 h and prevented by Dorsomorphin in both cell lines. AMPK inhibits mTORC1 through phosphorylation of Raptor on two well-conserved serine residues (ser722 and ser792) inducing cell-cycle arrest in response to an energy stress. To further support the 8c-induced AMPK activation, we determined Raptor phosphorylation on Ser792 in prostate cells.
Figure 5 AMPK activation by compound 8c in prostate cancer cells. (A) PC-3 and LNCaP cells were treated with vehicle, 25 µM compound 8c, 25 µM compound 8c + 5 μM Dorsomorphin (8c + D) or 5 μM Dorsomorphin (D), for 1 hour or 24 hours and levels of the phosphorylated AMPK (pAMPK), phosphorylated ACC (pACC), phosphorylated Raptor (pRaptor) forms and HIF1α were determined by Western blot. Upper panel, representative Western blot of three different experiments. β-tubulin (β-Tub) serves as a loading control. […] (B) Cell viability monitored by MTT assay in PC-3 and LNCaP cells treated with vehicle, 25 µM and 50 μM compound 8c alone or in the presence of 5 μM Dorsomorphin or transfected with control siRNA (siC) or α1AMPK-selective siRNA (siAMPK). […]

## O=C1Nc2ccccc2C1(F)Cc1ccc(-c2ccccc2)o1 (stereo not drawn) [Compound 8c, 3-fluoro-3-((5-phenylfuran-2-yl)methyl)indolin-2-one]
DU145 cells; DU145, 50 μM
  inhibitory efficacy on cells viability at 50 μM: 88%
DU145 cells; Homo sapiens, DU-145, DU145, MTT, 24 hours
  pIC50: 4.72
Raptor
  Raptor phosphorylation on Ser792 (p-Raptor): increase in p-Raptor
